We go through one molecule from patent publication US9089572B2, “Inhibitors of p97” (California Institute of Technology, priority 2008, dated 2015).

The target of one assay is Hamster NSF (Cricetulus griseus, UniProt P18708). The experiment in a line: In vitro ATP hydrolysis, NSF. It is filed as biochemical. On the procedure: To determine whether cysteine 522 is necessary for inhibition of p97 by compound 2, a mutant of p97 was constructed in which cysteine 522 was converted to either alanine (C522A-mp97) or threonine (C522T-mp97). The IC50 values of compound 2 were measured the against various enzymes during a 20-minute preincubation (see Table 2). Mutation of cysteine 522 in p97 to either alanine or threonine decreased sensitivity to compound 2 by greater than 100-fold. On the other hand, yeast Cdc48, which normally is quite resistant to compound 2, became nearly 30-fold more sensitive to the compound upon introduction of a cysteine in place of threonine 532.
To further address the specificity of inhibition by compound 2, its activity against two other AAA ATPases, NSF and the 26S proteasome, was assayed. Although NSF is known to be sensitive to thiol-reactive agents, it was more than 100-fold less sensitive to compound 2 than p97 (Table 2). […] The results with NSF and the 26S proteasome are noteworthy because both the active D1 domain of NSF and the Rpt3 subunit of the 26S proteasome have a cysteine in the position analogous to cysteine 522 of p97 (FIG. 3).

The next assay relates to HeLa. The experiment in a line: MTT cell growth assay, HeLa. It is filed as cell-based. Particulars: Homo sapiens, 48 or 72 h, read-out: Cell line inhibition of growth GI50 HeLa. On the procedure: (§1) To probe further the effect of compound 2 and related compounds 1, 3, 5, 6 and 7, various concentrations of these compounds were added to 13 different cell lines and incubated for 48 or 72 h. An MTT assay was then performed to evaluate cell growth and survival.
Background: Tetrazolium dyes change colour on reduction, which living cells bring about.

Another assay concerns DU145. Nature of the assay: MTT cell growth assay, DU145. It is filed as cell-based. Particulars: Homo sapiens, DU-145, 48 or 72 h, read-out: Cell line inhibition of growth GI50 DU145. Here is the method:
as §1

Chain of Hamster NSF (P18708 whole entry): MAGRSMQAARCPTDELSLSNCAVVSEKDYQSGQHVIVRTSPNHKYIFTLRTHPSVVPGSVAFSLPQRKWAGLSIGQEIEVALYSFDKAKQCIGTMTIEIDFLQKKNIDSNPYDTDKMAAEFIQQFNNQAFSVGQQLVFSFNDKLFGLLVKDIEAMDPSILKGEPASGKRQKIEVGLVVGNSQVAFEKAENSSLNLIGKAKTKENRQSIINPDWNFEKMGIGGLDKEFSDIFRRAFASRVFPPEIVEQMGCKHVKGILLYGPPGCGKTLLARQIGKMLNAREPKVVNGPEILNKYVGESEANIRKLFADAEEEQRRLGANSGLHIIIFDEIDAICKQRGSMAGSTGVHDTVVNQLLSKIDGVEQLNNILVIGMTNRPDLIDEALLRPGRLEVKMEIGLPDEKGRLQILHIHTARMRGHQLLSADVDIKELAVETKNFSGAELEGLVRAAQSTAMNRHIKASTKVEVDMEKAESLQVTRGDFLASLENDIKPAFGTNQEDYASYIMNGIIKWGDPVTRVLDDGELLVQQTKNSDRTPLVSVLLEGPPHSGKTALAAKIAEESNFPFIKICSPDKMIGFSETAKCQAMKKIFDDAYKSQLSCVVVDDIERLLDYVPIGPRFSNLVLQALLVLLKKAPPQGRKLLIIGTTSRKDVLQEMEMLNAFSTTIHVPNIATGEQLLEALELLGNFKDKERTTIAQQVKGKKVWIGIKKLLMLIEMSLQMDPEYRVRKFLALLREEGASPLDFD

Take `C=CC(=O)Nc1ncnc2c1c(-c1ccccc1)nn2C(C)(C)C` [Compound 2]: on Hamster NSF (20-minute preincubation), the IC50 was 105 ± 31 µM. In addition, at Hamster NSF (NSF vs p97), the “NSF less sensitive than p97” value is listed as “more than 100 fold”. Moreover, the GI50 with HeLa came out at 0.4 ± 0.3 µM; with DU145, 3.6 ± 1.5 µM.

By IC50 is commonly meant the concentration that gives 50% inhibition. The low end stands for higher potency, the high end for lower potency. By GI50 is commonly meant the concentration giving 50% growth inhibition.
